Measured values reported in US20090215678A1, “Preventing Vertical Endoparasite Infections” (BAYER HEALTHCARE AG, priority 2004, published 2009).

Tests used:
[1] = Tolerability in dams and pups in the beagle study; assay type: in vivo; settings: 1 mg/kg orally, T1 and T2
Method: (§1) The investigations were carried out on eighteen beagle bitches which had been experimentally infected with Toxocara canis. Six of these animals served as the untreated control group. Two different treatment schemes were used. In treatment group 1 (T1), six bitches were treated daily, from the 42nd day of pregnancy onwards until the birth of the pups, with in each case 1 mg of emodepside/kg of body weight, given orally as a tablet formulation; the six bitches in treatment group 2 (T2) were treated in the same way except that the treatment was only given every third day instead of daily. The efficacy of the treatment was assessed by determining three target quantities in the pups: number of somatic T. canis larvae in samples of the liver, lung, kidney and gastrointestinal tract including content and musculature (euthanasia of the pups directly after birth), number of excreted eggs per gram of faeces and number of intestinal T. canis stages after washing out the intestine (euthanasia of the pups on the 35th day of life).
Incompatibility phenomena were not observed either in the dam or in the pups.

[2] = tested on: Toxocara canis; experiment: Prevention of vertical (prenatal) Toxocara canis infection in pups of experimentally infected beagle bitches treated during pregnancy; assay type: in vivo; settings: for percentage efficacy, number of excreted eggs per gram of faeces: measured in pups; for percentage efficacy, number of intestinal stages in the intestine: pups euthanised on 35th day of life
Method: as §1

[3] = T2: 1 mg/kg orally, every third day from 42nd day of pregnancy until birth

## CC(C)C[C@H]1C(=O)O[C@H](Cc2ccc(N3CCOCC3)cc2)C(=O)N(C)[C@@H](CC(C)C)C(=O)O[C@H](C)C(=O)N(C)[C@@H](CC(C)C)C(=O)O[C@H](Cc2ccc(N3CCOCC3)cc2)C(=O)N(C)[C@@H](CC(C)C)C(=O)O[C@H](C)C(=O)N1C [emodepside]
[1]
  incompatibility phenomena in the dam or in the pups: not observed
[2]; T1 (daily treatment)
  mean value of percentage efficacy obtained from the target quantities: 98.7%
[2]; T1: 1 mg emodepside/kg body weight orally as tablet, daily from 42nd day of pregnancy until birth
  percentage efficacy, number of excreted eggs per gram of faeces: 99.9%
[2]; T1: 1 mg/kg orally, daily from 42nd day of pregnancy until birth, pups euthanised directly after birth
  percentage efficacy, number of somatic larvae in the digestive organs: 96.4%
[2]; T1: 1 mg/kg orally, daily from 42nd day of pregnancy until birth
  percentage efficacy, number of intestinal stages in the intestine: 99.9%
[2]; T2 (treatment every third day)
  mean value of percentage efficacy obtained from the target quantities: 97.5%
[2]; [3]
  percentage efficacy, number of excreted eggs per gram of faeces: 99.9%
  percentage efficacy, number of intestinal stages in the intestine: 98.7%
[2]; T2: 1 mg/kg orally, every third day from 42nd day of pregnancy until birth, pups euthanised directly after birth
  percentage efficacy, number of somatic larvae: 93.8%
[2]; both treatment schemes (T1 and T2)
  prenatal infection with T. canis in the pups: marked reduction
